Publication PMC12224939, “Trypstatin as a Novel TMPRSS2 Inhibitor with Broad‐Spectrum Efficacy against Corona and Influenza Viruses” (Advanced Science, 2025)
Counter-ions that a name gives are not always drawn. Like-named read-outs stand apart in the source and are kept apart here. Bridge positions count the residues as written; N and C are the ends. Ends that are not written are not given here.

Assays:
[1] = cited from earlier work
[2] = system: Influenza B/Ned/537/05 (Ned05; B/Yamagata lineage); test: Influenza virus inhibition assay in Calu-3 cells, IBV; type: cell-based, influenza B virus
[3] = system: Influenza A/Virginia/ATCC3/2009 (Virg09; A/H1N1); test: Influenza virus inhibition assay in Calu-3 cells, IAV H1N1; type: cell-based, influenza A virus
Kallikrein 5 = molecular target: T1, Kallikrein 5 (Homo sapiens, UniProt Q9Y337); test: Recombinant kallikrein 5 activity assay; type: biochemical; conditions: recombinant enzyme
T1 construct: purchased R&D 1108
T1 sequence (Q9Y337 23-293): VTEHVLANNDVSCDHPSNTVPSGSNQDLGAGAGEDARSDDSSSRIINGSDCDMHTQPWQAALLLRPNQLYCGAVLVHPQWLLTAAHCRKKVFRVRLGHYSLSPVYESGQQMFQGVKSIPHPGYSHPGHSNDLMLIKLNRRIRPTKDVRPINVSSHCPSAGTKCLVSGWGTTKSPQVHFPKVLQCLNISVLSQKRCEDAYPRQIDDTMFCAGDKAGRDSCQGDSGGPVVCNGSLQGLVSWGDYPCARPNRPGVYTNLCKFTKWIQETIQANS
Method: Kallikrein 5 activity was measured by mixing 25 µL of compound with 25 µL of 2 µg mL^−1 of recombinant enzyme (R&D #1108) in assay buffer (100 mM NaH2PO4, pH 8) for 15 min at 37 °C before the addition of 50 µL of BOC‐Val‐Pro‐Arg‐AMC substrate (R&D #ES011). The mixture was incubated for 5 min at 37 °C before fluorescence intensity was measured at an excitation wavelength of 380 nm and emission wavelength of 460 nm in a SynergyTM H1 microplate reader (BioTek) with Gen5 3.04 software.

SARS-CoV-2 Omicron BA.1 = test: microbe, parasite or virus in culture; type: cell-based
[4] = system: Influenza A/Victoria/361/11 (Vict11; A/H3N2); test: Influenza virus inhibition assay in Calu-3 cells, IAV H3N2; type: cell-based, influenza A virus
TMPRSS13 = molecular target: T2, TMPRSS13 (Homo sapiens, UniProt Q9BYE2); test: Cellular TMPRSS13 activity assay in transfected HEK293T cells; type: cell-based
T2 construct: encoding the respective transmembrane serine protease per well; host or cells: HEK293T
T2 sequence (Q9BYE2 other isoform, or with tags, fused parts or gaps): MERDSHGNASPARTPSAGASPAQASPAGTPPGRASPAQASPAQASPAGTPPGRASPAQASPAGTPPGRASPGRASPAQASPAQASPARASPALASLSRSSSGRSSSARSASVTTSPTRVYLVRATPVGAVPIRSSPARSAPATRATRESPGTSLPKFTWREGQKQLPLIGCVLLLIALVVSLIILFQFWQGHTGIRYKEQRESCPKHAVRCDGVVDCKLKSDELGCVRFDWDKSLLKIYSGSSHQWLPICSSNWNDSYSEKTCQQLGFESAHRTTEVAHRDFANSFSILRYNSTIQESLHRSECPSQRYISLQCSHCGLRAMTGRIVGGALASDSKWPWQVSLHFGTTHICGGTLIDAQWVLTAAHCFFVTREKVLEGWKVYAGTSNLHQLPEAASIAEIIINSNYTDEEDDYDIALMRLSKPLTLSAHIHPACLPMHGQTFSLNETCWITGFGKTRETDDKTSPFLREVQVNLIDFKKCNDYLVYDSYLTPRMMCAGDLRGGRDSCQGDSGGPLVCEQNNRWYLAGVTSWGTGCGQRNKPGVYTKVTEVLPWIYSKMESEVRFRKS
Method: (§1) Twenty thousand HEK293T cells were seeded in a 96‐well flat bottom plate. The next day, cells were transfected with 100 ng of an expression plasmid (Backbone: Twist Bioscience, EF1alpha mammalian expression vector) encoding the respective transmembrane serine protease per well using LT1 transfection reagent (TMPRSS2 human NCBI RefSeq: NP_005647.3; TMPRSS2 Syrian gold hamster NCBI RefSeq: XP_012971683.1; TMPRSS11D NCBI RefSeq: NP_004253.1; TMPRSS13 NCBI RefSeq: NP_001070731.1). In short, plasmid DNA was mixed in a 1:3 ratio with LT1 in a serum‐free medium and incubated for 20 min before the mixture was applied dropwise onto the cells. Sixteen hours post‐transfection, the medium was replaced by a serum‐free medium, and cells were treated with serial dilution of compounds in PBS. After 15 min of incubation at 37 °C, 100 µM of respective protease‐specific substrate (TMPRSS2: Boc‐QAR‐AMC, Bachem # 4017019; TMPRSS11D: Boc‐FSR‐AMC, Bachem # 4012340; TMPRSS13: Pyr‐RTKR‐AMC, Bachem #4018149) was added and incubated for 2 h at 37 °C. Fluorescence intensity was recorded at an excitation wavelength of 380 nm and emission wavelength of 460 nm in a Synergy H1 microplate reader (BioTek) with Gen 5 3.04 software. Values were background corrected for non‐transfected HEK293T‐cells.

hCoV-NL63 = test: HCoV-NL63 inhibition assay in Caco-2 cells; type: cell-based
Method: Caco‐2 cells (25 000) were seeded in a 96‐well flat‐bottom plate before the following day, cells were treated for 30 min with serial dilutions of compounds in PBS and the cells were infected with a MOI of 0.018 and incubated at 33 °C. At 72 hpi, cells were detached and fixed in a final concentration of 4% PFA for 30 min. Subsequently, cells were washed with PBS and stained for flow cytometry analysis with anti‐NL63‐nucleocapsid antibody (SinoBiological #40641‐T62) diluted 1:5000 in Buffer B (Fix and Perm, MuBio Nordic) for 40 min at 4 °C. Cells were washed twice with FACS buffer (1% FCS in PBS) and incubated with Alexa Flour 647 labeled anti‐rabbit antibody (Cell Signaling #4414) diluted 1:5000 in FACS buffer for 30 min at 4 °C before the cells were washed again twice with FACS buffer. Analysis was performed using a CytoflexLX flow cytometer (Beckmann Coulter) with CytExpert 2.3 software.

TMPRSS14 (Matriptase) = molecular target: T3, TMPRSS14 (Matriptase) (Homo sapiens, UniProt Q9Y5Y6); test: Recombinant TMPRSS14 activity assay; type: biochemical; conditions: recombinant enzyme
T3 construct: purchased 3946
T3 sequence (Q9Y5Y6 whole entry): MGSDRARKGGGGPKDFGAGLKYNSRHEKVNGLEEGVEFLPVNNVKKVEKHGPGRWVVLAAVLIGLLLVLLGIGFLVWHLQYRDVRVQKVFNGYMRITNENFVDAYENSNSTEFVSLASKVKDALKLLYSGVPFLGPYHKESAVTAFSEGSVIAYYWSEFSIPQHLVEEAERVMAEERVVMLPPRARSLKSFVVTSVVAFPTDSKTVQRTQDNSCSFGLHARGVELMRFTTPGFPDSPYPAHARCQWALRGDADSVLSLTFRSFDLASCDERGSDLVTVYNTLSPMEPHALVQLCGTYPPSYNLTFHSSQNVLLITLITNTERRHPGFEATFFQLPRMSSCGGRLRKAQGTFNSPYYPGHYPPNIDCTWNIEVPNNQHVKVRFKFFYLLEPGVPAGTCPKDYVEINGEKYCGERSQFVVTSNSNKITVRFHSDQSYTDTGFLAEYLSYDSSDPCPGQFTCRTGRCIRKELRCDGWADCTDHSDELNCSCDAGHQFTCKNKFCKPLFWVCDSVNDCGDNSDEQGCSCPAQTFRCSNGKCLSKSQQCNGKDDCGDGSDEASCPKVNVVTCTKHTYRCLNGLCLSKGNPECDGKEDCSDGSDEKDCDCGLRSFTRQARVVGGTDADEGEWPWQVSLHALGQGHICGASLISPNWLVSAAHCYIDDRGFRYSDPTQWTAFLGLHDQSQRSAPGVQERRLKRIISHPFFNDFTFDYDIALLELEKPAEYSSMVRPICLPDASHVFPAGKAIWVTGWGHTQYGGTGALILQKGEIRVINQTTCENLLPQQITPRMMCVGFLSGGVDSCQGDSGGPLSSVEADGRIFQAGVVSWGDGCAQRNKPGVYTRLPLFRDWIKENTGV
Method: In the next step, 50 µL of 20 µM BOC‐Gln‐Ala‐Arg‐AMC protease substrate (Bachem #4017019) in the case of TMPRSS2 and TMPRSS14 or 50 µL of 150 µM BOC‐Gln‐Arg‐Arg‐AMC (PeptaNova) in the case of TMPRSS1 was added and incubated for 2 h for TMPRSS2, or 5 mins in the case of TMPRSS1/14 at 37 °C. Fluorescence intensity was measured after 2 h at an excitation wavelength of 380 nm and emission wavelength of 460 nm in a SynergyTM H1 microplate reader (BioTek) with Gen5 3.04 software. […] Assays were performed in a total volume of 100 µL in quadruplicate wells of a 96 Nunc well plate (Thermo Scientific #10174221) with a final TMPRSS2 concentration of 20 nM. Initial velocities were measured in 50 s intervals for 15 min with excitation of 360 nm and emission of 460 nm in a SynergyTM H1 microplate reader. K m and V max were calculated from Michaelis–Menten plots using GraphPadPrism. The inhibitory constant K i was calculated from the IC50 values according to the Cheng–Prusoff equation (K i = IC50/(1 + [S]/K m)) for competitive reversible inhibitors.^[ [91] ^]

TMPRSS11D = molecular target: T4, TMPRSS11D (Homo sapiens, UniProt O60235); test: Cellular TMPRSS11D activity assay in transfected HEK293T cells; type: cell-based
T4 construct: encoding the respective transmembrane serine protease per well; host or cells: HEK293T
T4 sequence (O60235 whole entry): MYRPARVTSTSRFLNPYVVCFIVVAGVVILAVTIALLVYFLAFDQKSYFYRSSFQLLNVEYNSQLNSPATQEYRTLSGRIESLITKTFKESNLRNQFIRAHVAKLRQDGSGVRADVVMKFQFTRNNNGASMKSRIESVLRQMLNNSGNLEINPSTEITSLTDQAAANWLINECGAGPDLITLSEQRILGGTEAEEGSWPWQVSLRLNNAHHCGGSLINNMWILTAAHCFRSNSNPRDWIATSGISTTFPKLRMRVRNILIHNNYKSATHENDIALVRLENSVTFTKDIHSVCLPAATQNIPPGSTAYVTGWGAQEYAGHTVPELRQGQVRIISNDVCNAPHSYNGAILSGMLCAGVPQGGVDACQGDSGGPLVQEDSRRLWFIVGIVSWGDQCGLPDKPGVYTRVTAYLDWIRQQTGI
Method: as §1

[5] = system: lentiviral pseudoparticles harboring VSV-G glycoprotein; type: cell-based
[6] = Table S1, read-out: anti-viral IC50 (±SEM), IBV
[7] = Table S1, read-out: anti-viral IC50 (±SEM), IAV H1N1
[8] = Human coronavirus NL63, Caco-2, Table S1, read-out: anti-viral IC50 (±SEM), hCoV-NL63

N=C(N)c1ccc2cc(OC(=O)c3ccc(N=C(N)N)cc3)ccc2c1 [Nafamostat mesylate]
half-life [1]: 8 min

O=C1c2c(O)c(=O)ccn2N([C@@H]2c3ccccc3SCc3c2ccc(F)c3F)[C@@H]2COCCN12 [Baloxavir acid]
IC50 [2, 6]: 10.3 ± 2 nM
IC50 [3, 7]: 1.6 ± 1 nM

CN(C)C(=O)COC(=O)Cc1ccc(OC(=O)c2ccc(NC(=N)N)cc2)cc1 [Camostat mesylate]
plasma half-life [1]: < 2 h
IC50 (Kallikrein 5): 536 nM
IC50 ([2]; Influenza B virus, Calu-3, 72 h, read-out: IC50, IBV (Ned05)): 125 nM
IC50 ([2]; Influenza B virus, Calu-3, Table S1, read-out: anti-viral IC50 (±SEM), IBV): 125 ± 33 nM
IC50 (SARS-CoV-2 Omicron BA.1; Severe acute respiratory syndrome coronavirus 2, Caco-2, 24 h, read-out: IC50, SARS-CoV-2 Omicron BA.1): 68 nM
IC50 (SARS-CoV-2 Omicron BA.1; Severe acute respiratory syndrome coronavirus 2, Caco-2, read-out: anti-viral IC50 (±SEM), SARS-CoV-2 BA.1): 68.1 ± 5 nM
IC50 ([4]; Influenza A virus, H3N2, Calu-3, 72 h, read-out: IC50, IAV H3N2 (Vict11)): 50 nM
IC50 ([4]; Influenza A virus, H3N2, Calu-3, Table S1, read-out: anti-viral IC50 (±SEM), IAV H3N2): 50.2 ± 16 nM
IC50 (TMPRSS13): 93 nM
IC50 ([3]; Influenza A virus, Calu-3, 72 h, read-out: IC50, IAV H1N1 (Virg09)): 220 nM
IC50 ([3]; Influenza A virus, Calu-3, Table S1, read-out: anti-viral IC50 (±SEM), IAV H1N1): 220 ± 49 nM
IC50 (hCoV-NL63; Human coronavirus NL63, Caco-2, 72 h, read-out: IC50, hCoV-NL63 replication): 110 nM
IC50 (hCoV-NL63; [8]): 110 ± 24 nM
IC50 (TMPRSS14 (Matriptase)): 23 nM
IC50 (TMPRSS11D): 194 nM

CC(C)(C)[C@H](NC(=O)C(F)(F)F)C(=O)N1C[C@H]2[C@@H]([C@H]1C(=O)N[C@H](C#N)C[C@@H]1CCNC1=O)C2(C)C [Nirmatrelvir]
IC50 (hCoV-NL63; [8]): 1260 ± 64 nM

Aprotinin
IC50 [2, 6]: 2790 ± 871 nM
IC50 ([4]; Table S1, read-out: anti-viral IC50 (±SEM), IAV H3N2): 1460 ± 693 nM
IC50 [3, 7]: 2250 ± 886 nM

CNLPIVRGPCRAFIQLWAFDAVKGKCVLFPYGGCQGNGNKFYSEKECREYC (disulfide 1-51, 10-34, 26-47) [Bikunin KD 2]
effect on VSV-G-mediated pseudoparticle entry [5]: without affecting VSV‐G‐driven entry

B1: Bikunin (protein, UniProt P02760 206-352, looked up)
Inter-alpha-trypsin inhibitor …: AVLPQEEEGSGGGQLVTEVTKKEDSCQLGYSAGPCMGMTSRYFYNGTSMACETFQYGGCMGNGNNFVTEKECLQTCRTVAACNLPIVRGPCRAFIQLWAFDAVKGKCVLFPYGGCQGNGNKFYSEKECREYCGVPGDGDEELLRFSN
modifications: Inter-alpha-trypsin inhibitor light chain
effect on VSV-G-mediated pseudoparticle entry [5]: non‐specific effects against VSV‐G‐mediated entry
